Values after ≈ are worked out from the molar mass of the structure shown. Read-outs that look alike come from different tables or passages of the source. Where a SMILES comes first, the peptide text is derived from it. Bridges are numbered along the chain shown (N, C = ends). [ ]: non-standard residue; d: D form. The star is where a group is joined. Ileψ(thiazoline)Cys = CC[C@H](C)[C@H](N)C1=N[C@H](C(=O)*)CS1; dOrn = NCCC[C@@H](N)C(=O)O
Key:
B. subtilis DSM 29870 = assay type: cell-based; conditions: Bacillus subtilis
B. subtilis DSM 29871 = assay type: cell-based; conditions: Bacillus subtilis
[1] = test system: B. amyloliquefaciens DSM 29869; assay type: cell-based; conditions: Bacillus amyloliquefaciens, DSM29869, 37° C., 20-24 h
Clostridium perfringens = assay type: in vivo, broiler chickens Cobb×Cobb; conditions: infected, bacitracin 50 ppm
[2] = Trial 1, DSM 29870 1.10^9 CFU/kg of feed
[3] = Trial 3, DSM 29870 5.10^8 CFU/kg of feed

Compound	MIC (B. subtilis DSM 29870; DSM29870, read-out: MIC 1) [µg/mL]	MIC (B. subtilis DSM 29870; DSM29870, read-out: MIC 2) [µg/mL]	MIC (B. subtilis DSM 29870; DSM29870, read-out: MIC 3) [µg/mL]	MIC (B. subtilis DSM 29871; DSM29871, read-out: MIC 1) [µg/mL]	MIC (B. subtilis DSM 29871; DSM29871, read-out: MIC 2) [µg/mL]	MIC (B. subtilis DSM 29871; DSM29871, read-out: MIC 3) [µg/mL]	MIC ([1]; biological replicate 1, read-out: MIC 1) [µg/mL]	MIC ([1]; biological replicate 2, read-out: MIC 2) [µg/mL]	MIC ([1]; biological replicate 3, read-out: MIC 3) [µg/mL]	Dead birds with necrotic enteritis lesions (d1-d28) (Clostridium perfringens; [2]) [b %]	Total mortality (d1-d28) (Clostridium perfringens; [2]) [b %]	Dead birds with necrotic enteritis lesions (d1-d28) (Clostridium perfringens; Trial 2, DSM 29870 5.10^8 CFU/kg of feed) [c %]	Dead birds with necrotic enteritis lesions (d1-d28) (Clostridium perfringens; [3]) [bc %]	Total mortality (d1-d28) (Clostridium perfringens; [3]) [a %]
CN[C@H](CC(C)C)C(=O)N[C@H]1C(=O)N[C@@H](CC(N)=O)C(=O)N[C@H]2C(=O)N[C@H]3C(=O)N[C@H](C(=O)N[C@H](C(=O)O)c4cc(O)cc(O)c4-c4cc3ccc4O)[C@H](O)c3ccc(c(Cl)c3)Oc3cc2cc(c3O[C@@H]2O[C@H](CO)[C@@H](O)[C@H](O)[C@H]2O[C@H]2C[C@](C)(N)[C@H](O)[C@H](C)O2)Oc2ccc(cc2Cl)[C@H]1O [Vancomycin]	0.25 (≈ 0.173 µM)	0.25 (≈ 0.173 µM)	0.25 (≈ 0.173 µM)	0.25 (≈ 0.173 µM)	0.25 (≈ 0.173 µM)	0.25 (≈ 0.173 µM)	0.25 (≈ 0.173 µM)	0.25 (≈ 0.173 µM)	0.25 (≈ 0.173 µM)					
CC[C@H](C)[C@H](N)C1=N[C@H](C(=O)N[C@@H](CC(C)C)C(=O)N[C@H](CCC(=O)O)C(=O)N[C@H](C(=O)N[C@H]2CCCCNC(=O)[C@H](CC(N)=O)NC(=O)[C@@H](CC(=O)O)NC(=O)[C@H](Cc3cnc[nH]3)NC(=O)[C@@H](Cc3ccccc3)NC(=O)[C@H]([C@@H](C)CC)NC(=O)[C@@H](CCCN)NC2=O)[C@@H](C)CC)CS1 [bacitracin] ({Ileψ(thiazoline)Cys}-L[dE]IK[dOrn]I[dF]H[dD]N; lactam 4-C)										1.6	5.0	6.3	4.7	15.0

Source: US11801272B2, “Bacillus strains improving health and performance of production animals” (Novozymes A/S, priority 2015, dated 2023)
